Measurements from patent publication US10323027B2, “2,3-dihydro-4H-1,3-benzoxazin-4-one derivatives as modulators of cholinergic muscarinic M1 receptor” (Takeda Pharmaceutical Company Limited, priority 2015, dated 2019).
Counter-ions that a name gives are not always drawn.

Biological target: T1, human M1 receptor (hCHRM1) (Homo sapiens, UniProt P11229)
T1 construct: expressed in transfected cells
T1 sequence (P11229 1-460): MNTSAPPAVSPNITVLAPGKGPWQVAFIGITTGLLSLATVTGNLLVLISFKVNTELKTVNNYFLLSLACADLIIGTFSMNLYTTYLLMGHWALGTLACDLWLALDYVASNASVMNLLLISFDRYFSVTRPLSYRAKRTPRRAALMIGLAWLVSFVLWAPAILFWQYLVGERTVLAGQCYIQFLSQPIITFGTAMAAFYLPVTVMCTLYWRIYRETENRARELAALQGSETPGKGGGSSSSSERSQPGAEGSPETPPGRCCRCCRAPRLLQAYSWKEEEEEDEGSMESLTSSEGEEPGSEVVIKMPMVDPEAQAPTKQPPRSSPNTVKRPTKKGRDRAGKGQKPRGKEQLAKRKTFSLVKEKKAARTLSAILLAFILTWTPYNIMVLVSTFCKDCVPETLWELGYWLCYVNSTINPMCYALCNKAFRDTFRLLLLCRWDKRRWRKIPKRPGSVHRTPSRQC
Assay: Measurement of M1 receptor positive allosteric modulator (M1PAM) activity, Ca2+ fluorescence by FLIPRtetra (Experimental Example 1)
Format: cell-based
Settings: for activity (%) at 10 μM: 10 μM test compound, 100% = acetylcholine 1 μM, 0% = DMSO; for EC50: inflection point of concentration-dependent curve, in presence of acetylcholine at EC20 (0.8-1.0 nM), CHO-K1 cells expressing hCHRM1, read-out: IP value
Description: Measurement of M1 Receptor Positive Allosteric Modulator (M1PAM) Activity
The activity of a test compound in the presence of acetylcholine at EC20 concentration (final concentration 0.8-1.0 nM), which affords an action corresponding to about 20% of the maximum activity, was measured as PAM activity. The method is as follows. CHO-K1 cells stably expressing a human M1 receptor (hCHRM1) were plated on a 384-well black clear bottom plate (BD Falcon) at 5,000 cells/well, and cultured in an incubator at 37° C., 5% CO2 for 1 day. The medium in the cell plate was removed, and a dye solution (prepared by adding Recording medium (DOJINDO LABORATORIES) to a final concentration of 1×concentration, Fluo-4 AM (DOJINDO LABORATORIES) to a final concentration of 2.5 μg/mL, Pluronic F127 (DOJINDO LABORATORIES) to a final concentration of 0.08%, and probenecid (DOJINDO LABORATORIES) to a final concentration of 1.25 mM to assay buffer (HBSS (Invitrogen), 20 mM HEPES (Invitrogen), 0.1% BSA (Wako Pure Chemical Industries, Ltd.))) was added at 30 μL/well. The cells were left standing in the incubator at 37° C., 5% CO2 for 30 min, and further left standing at room temperature for 30 min. A test compound prepared by diluting with assay buffer containing 3.2-4.0 nM acetylcholine was added at 10 μL/well, and the fluorescence was measured by FLIPRtetra (Molecular Devices) for 1 min every 1 second. With the definition that the amount of change in the fluorescence on addition of acetylcholine (final concentration 1 μM) is 100% and that on addition of DMSO instead of a test compound is 0%, the activity (%) of the test compound was calculated, and the inflection point in the concentration-dependent curve of the test compound was calculated as IP values.

activity (%) at 10 μM [%]	EC50 [nM]	Structure (SMILES)
99	21	COc1ccc(Cc2cc3c(c(C)c2C)OCN([C@H]2COCC[C@@H]2O)C3=O)cc1 (relative stereo) [Example 59, 1,5-anhydro-2,4-dideoxy-2-(6-(4-methoxybenzyl)-7,8-dimethyl-4-oxo-2H-1,3-benzoxazin-3(4H)-yl)-threo-pentitol]
91		Cc1cc2c(cc1Cc1ccc(Cl)nc1)C(=O)N([C@H]1CCCC[C@@H]1O)CO2 (relative stereo) [Example 62, 6-((6-chloropyridin-3-yl)methyl)-3-(trans-2-hydroxycyclohexyl)-7-methyl-2,3-dihydro-4H-1,3-benzoxazin-4-one]
99	32	Cn1cc(-c2ccc(Cc3ccc4c(c3)C(=O)N([C@H]3CCCC[C@@H]3O)CO4)cn2)cn1 (relative stereo) [Example 63, 3-(trans-2-hydroxycyclohexyl)-6-((6-(1-methyl-1H-pyrazol-4-yl)pyridin-3-yl)methyl)-2,3-dihydro-4H-1,3-benzoxazin-4-one]
99	35	Cc1cc(Cc2ccc(-n3cccn3)cc2)cc2c1OCN([C@H]1CCCC[C@@H]1O)C2=O (relative stereo) [Example 65, 3-(trans-2-hydroxycyclohexyl)-8-methyl-6-(4-(1H-pyrazol-1-yl)benzyl)-2,3-dihydro-4H-1,3-benzoxazin-4-one]
93	44	Cn1cc(-c2ccc(Cc3ccc4c(c3)C(=O)N([C@H]3CCCC[C@@H]3O)CO4)cc2)cn1 (relative stereo) [Example 66, 3-(trans-2-hydroxycyclohexyl)-6-(4-(1-methyl-1H-pyrazol-4-yl)benzyl)-2,3-dihydro-4H-1,3-benzoxazin-4-one]
104	110	Cc1cc2c(cc1CN1CCC(F)(F)CC1)C(=O)N([C@H]1CCCC[C@@H]1O)CO2 (relative stereo) [Example 85, 6-((4,4-difluoropiperidin-1-yl)methyl)-3-(trans-2-hydroxycyclohexyl)-7-methyl-2,3-dihydro-4H-1,3-benzoxazin-4-one]
99	100	COc1ccc(Cc2cc3c(cc2C)OCN([C@H]2COCC[C@@H]2O)C3=O)cc1 (relative stereo) [Example 86, 1,5-anhydro-2,4-dideoxy-2-(6-(4-methoxybenzyl)-7-methyl-4-oxo-2H-1,3-benzoxazin-3(4H)-yl)-threo-pentitol]

More lines, now with the values behind:

Structure (SMILES)	activity (%) at 10 μM [%]	EC50 [nM]
COc1c(Cc2ccc(-n3cccn3)nc2)cc2c(c1F)OCN([C@H]1CCC[C@@H]1O)C2=O (relative stereo) [Example 15, 8-fluoro-3-(trans-2-hydroxycyclopentyl)-7-methoxy-6-((6-(1H-pyrazol-1-yl)pyridin-3-yl)methyl)-2,3-dihydro-4H-1,3-benzoxazin-4-one]	92	19
Cc1c(Cc2ccc(-n3cccn3)cc2)cc2c(c1F)OCN([C@H]1CCC[C@@H]1O)C2=O (relative stereo) [Example 30, 8-fluoro-3-(trans-2-hydroxycyclopentyl)-7-methyl-6-(4-(1H-pyrazol-1-yl)benzyl)-2,3-dihydro-4H-1,3-benzoxazin-4-one]	102	8.6
Cc1c(Cc2ccc(Cl)nc2)cc2c(c1C)OCN([C@H]1COCC[C@@H]1O)C2=O (relative stereo) [Example 31, 1,5-anhydro-2-(6-((6-chloropyridin-3-yl)methyl)-7,8-dimethyl-4-oxo-2H-1,3-benzoxazin-3(4H)-yl)-2,4-dideoxy-threo-pentitol]	99	17
Cc1ccc(Cc2cc3c(cc2C)OCN([C@H]2CCCC[C@@H]2O)C3=O)cn1 (relative stereo) [Example 33, 3-(trans-2-hydroxycyclohexyl)-7-methyl-6-((6-methylpyridin-3-yl)methyl)-2,3-dihydro-4H-1,3-benzoxazin-4-one]	104	39
Cc1cc2c(cc1Cc1ccc(-n3cccn3)nc1)C(=O)N([C@H]1CCCC[C@@H]1O)CO2 (relative stereo) [Example 36, 3-(trans-2-hydroxycyclohexyl)-7-methyl-6-((6-(1H-pyrazol-1-yl)pyridin-3-yl)methyl)-2,3-dihydro-4H-1,3-benzoxazin-4-one]	108	12
Cc1c(Cc2ccc(-n3ccnc3)nc2)cc2c(c1Cl)OCN([C@H]1CCC[C@@H]1O)C2=O (relative stereo) [Example 39, 8-chloro-3-(trans-2-hydroxycyclopentyl)-6-((6-(1H-imidazol-1-yl)pyridin-3-yl)methyl)-7-methyl-2,3-dihydro-4H-1,3-benzoxazin-4-one]	88	1.5
Cn1cc(-c2ccc(Cc3cc4c(c5ccccc35)OCN([C@H]3CCCC[C@@H]3O)C4=O)cn2)cn1 (relative stereo) [Example 41, 3-(trans-2-hydroxycyclohexyl)-6-((6-(1-methyl-1H-pyrazol-4-yl)pyridin-3-yl)methyl)-2,3-dihydro-4H-naphtho[2,1-e][1,3]oxazin-4-one]	104	1.8
COc1c(Cc2ccc(-n3ccnc3)nc2)cc2c(c1F)OCN([C@H]1CCC[C@@H]1O)C2=O (relative stereo) [Example 48, 8-fluoro-3-(trans-2-hydroxycyclopentyl)-6-((6-(1H-imidazol-1-yl)pyridin-3-yl)methyl)-7-methoxy-2,3-dihydro-4H-1,3-benzoxazin-4-one]	106	7.4
Cc1c(Cc2ccc(-c3cnn(C)c3)nc2)cc2c(c1C)OCN([C@H]1CCCC[C@@H]1O)C2=O (relative stereo) [Example 49, 3-(trans-2-hydroxycyclohexyl)-7,8-dimethyl-6-((6-(1-methyl-1H-pyrazol-4-yl)pyridin-3-yl)methyl)-2,3-dihydro-4H-1,3-benzoxazin-4-one]	108	8
Cc1c(Cc2ccc(-n3cccn3)nc2)cc2c(c1Cl)OCN([C@H]1CCC[C@@H]1O)C2=O (relative stereo) [Example 51, 8-chloro-3-(trans-2-hydroxycyclopentyl)-7-methyl-6-((6-(1H-pyrazol-1-yl)pyridin-3-yl)methyl)-2,3-dihydro-4H-1,3-benzoxazin-4-one]	101	9.7
Cc1cc2c(cc1Cc1ccc(-n3cccn3)cc1)C(=O)N([C@H]1CCCC[C@@H]1O)CO2 (relative stereo) [Example 52, 3-(trans-2-hydroxycyclohexyl)-7-methyl-6-(4-(1H-pyrazol-1-yl)benzyl)-2,3-dihydro-4H-1,3-benzoxazin-4-one]	101	11
Cc1c(Cc2ccc(-n3cccn3)cc2)cc2c(c1C)OCN([C@H]1CCCC[C@@H]1O)C2=O (relative stereo) [Example 53, 3-(trans-2-hydroxycyclohexyl)-7,8-dimethyl-6-(4-(1H-pyrazol-1-yl)benzyl)-2,3-dihydro-4H-1,3-benzoxazin-4-one]	96	11
O=C1c2cc(Cc3ccc(Cl)nc3)c3ccccc3c2OCN1[C@H]1CCCC[C@@H]1O (relative stereo) [Example 56, 6-((6-chloropyridin-3-yl)methyl)-3-(trans-2-hydroxycyclohexyl)-2,3-dihydro-4H-naphtho[2,1-e][1,3]oxazin-4-one]	109	16
Cc1ccc(Cc2cc3c(c4ccccc24)OCN([C@H]2COCC[C@@H]2O)C3=O)cn1 (single isomer, unassigned) [Example 3, 1,5-anhydro-2,4-dideoxy-2-(6-((6-methylpyridin-3-yl)methyl)-4-oxo-2H-naphtho[2,1-e][1,3]oxazin-3(4H)-yl)-threo-pentitol monohydrochloride (optical isomer)]	103	2.5
